Measurements published in paper PMC5218480 (PLoS ONE, 2017).

System: MV-4-11 cells
Experiment: Gene expression microarray analysis (Affymetrix PrimeView) and GSEA
Assay type: cell-based, human
Parameters: RFU PODN (11730768_x_at) / Fold change /veh PODN (11730768_x_at) / RFU LINC00158 (11744669_a_at) / Fold change /veh LINC00158 (11744669_a_at) / RFU DUSP10 (11751237_a_at) / Fold change /veh DUSP10 (11751237_a_at) / RFU ID3 (11757404_x_at) / Fold change /veh ID3 (11757404_x_at) / RFU PLEKHG5 (11737974_s_at) / Fold change /veh PLEKHG5 (11737974_s_at) / RFU LRRC4B (11730491_at) / Fold change /veh LRRC4B (11730491_at) / RFU GIMAP4 (11747438_a_at) / Fold change /veh GIMAP4 (11747438_a_at) / RFU KRT8 (11758183_x_at) / Fold change /veh KRT8 (11758183_x_at) / RFU CNN1 (11734310_a_at) / Fold change /veh CNN1 (11734310_a_at) / RFU VPS37D (11726825_at) / Fold change /veh VPS37D (11726825_at) / RFU C10orf10 (11716522_x_at) / Fold change /veh C10orf10 (11716522_x_at) / RFU KIR2DL2 /// KIR2DL4 /// KIR2DL5A /// KIR2DL5B /// KIR2DS1 /// KIR2DS2 /// KIR2DS3 /// KIR2DS4 /// KIR3DL3 /// KIR3DL3 /// KIR3DS1 (11738374_at) / Fold change /veh KIR2DL2 /// KIR2DL4 /// KIR2DL5A /// KIR2DL5B /// KIR2DS1 /// KIR2DS2 /// KIR2DS3 /// KIR2DS4 /// KIR3DL3 /// KIR3DL3 /// KIR3DS1 (11738374_at) / RFU C1QL1 (11718748_at) / Fold change /veh C1QL1 (11718748_at) / RFU TMPRSS4 (11747572_a_at) / Fold change /veh TMPRSS4 (11747572_a_at) / RFU HAMP (11756126_x_at) / Fold change /veh HAMP (11756126_x_at) / RFU RNFT2 (11725882_a_at) / Fold change /veh RNFT2 (11725882_a_at) / RFU NR4A2 (11747474_a_at) / Fold change /veh NR4A2 (11747474_a_at) / RFU ABCC12 (11746883_a_at) / Fold change /veh ABCC12 (11746883_a_at) / RFU TMEM136 (11760407_x_at) / Fold change /veh TMEM136 (11760407_x_at) / RFU CLDN22 /// WWC2 (11732394_at) / Fold change /veh CLDN22 /// WWC2 (11732394_at) / RFU HLA-DPB1 (11760878_x_at) / Fold change /veh HLA-DPB1 (11760878_x_at) / RFU SPINT1 (11716480_a_at) / Fold change /veh SPINT1 (11716480_a_at) / RFU GAP43 (11754022_s_at) / Fold change /veh GAP43 (11754022_s_at) / RFU A4GNT (11735810_at) / Fold change /veh A4GNT (11735810_at) / RFU PRB3 (11715151_x_at) / Fold change /veh PRB3 (11715151_x_at) / RFU TUBB4B (11761932_at) / Fold change /veh TUBB4B (11761932_at) / RFU CAPN14 (11732068_a_at) / Fold change /veh CAPN14 (11732068_a_at) / RFU TMCC2 (11721928_a_at) / Fold change /veh TMCC2 (11721928_a_at) / RFU IRGQ (11745062_a_at) / Fold change /veh IRGQ (11745062_a_at) / RFU FAM174B (11720279_a_at) / Fold change /veh FAM174B (11720279_a_at) / RFU TMPRSS4 (11748680_a_at) / Fold change /veh TMPRSS4 (11748680_a_at) / RFU FAM212B (11763350_a_at) / Fold change /veh FAM212B (11763350_a_at) / RFU PLEKHG5 (11743358_a_at) / Fold change /veh PLEKHG5 (11743358_a_at) / RFU ZSCAN30 (11745921_a_at) / Fold change /veh ZSCAN30 (11745921_a_at) / RFU CMKLR1 (11741424_a_at) / Fold change /veh CMKLR1 (11741424_a_at) / RFU LOC101060620 /// MAPK8IP1 (11723275_at) / Fold change /veh LOC101060620 /// MAPK8IP1 (11723275_at) / RFU SPTSSB (11747773_x_at) / Fold change /veh SPTSSB (11747773_x_at) / RFU PRSS12 (11739890_at) / Fold change /veh PRSS12 (11739890_at) / RFU BIN1 (11741810_x_at) / Fold change /veh BIN1 (11741810_x_at) / RFU WNT11 (11732464_a_at) / Fold change /veh WNT11 (11732464_a_at) / RFU C10orf10 (11716521_a_at) / Fold change /veh C10orf10 (11716521_a_at) / RFU C5orf56 (11738089_at) / Fold change /veh C5orf56 (11738089_at) / RFU CYB561 (11721691_x_at) / Fold change /veh CYB561 (11721691_x_at) / RFU ANKRD19P (11752326_a_at) / Fold change /veh ANKRD19P (11752326_a_at) / RFU OR2T12 /// OR2T33 /// OR2T8 (11738714_s_at) / Fold change /veh OR2T12 /// OR2T33 /// OR2T8 (11738714_s_at) / RFU VCAN (11748164_a_at) / Fold change /veh VCAN (11748164_a_at) / RFU JSRP1 (11732532_at) / Fold change /veh JSRP1 (11732532_at) / RFU KRTAP10-11 (11738290_x_at) / Fold change /veh KRTAP10-11 (11738290_x_at) / RFU MYO3A (11730013_a_at) / Fold change /veh MYO3A (11730013_a_at) / RFU EBF3 (11725865_a_at) / Fold change /veh EBF3 (11725865_a_at) / RFU CAMK2N1 (11719241_x_at) / Fold change /veh CAMK2N1 (11719241_x_at) / RFU C5orf56 (11738088_a_at) / Fold change /veh C5orf56 (11738088_a_at) / RFU OLFML3 (11715873_a_at) / Fold change /veh OLFML3 (11715873_a_at) / RFU LOC100653217 /// NTM (11731650_a_at) / Fold change /veh LOC100653217 /// NTM (11731650_a_at) / RFU MAPK11 (11762145_a_at) / Fold change /veh MAPK11 (11762145_a_at) / RFU FIZ1 (11724087_x_at) / Fold change /veh FIZ1 (11724087_x_at) / RFU OASL (11726364_x_at) / Fold change /veh OASL (11726364_x_at) / RFU SOX15 (11748057_x_at) / Fold change /veh SOX15 (11748057_x_at) / RFU CD79A (11719716_a_at) / Fold change /veh CD79A (11719716_a_at) / RFU HIST1H1D (11736915_at) / Fold change /veh HIST1H1D (11736915_at) / RFU CASKIN2 (11723855_a_at) / Fold change /veh CASKIN2 (11723855_a_at) / RFU LOC730098 (11760151_x_at) / Fold change /veh LOC730098 (11760151_x_at) / RFU OR4N2 (11742367_at) / Fold change /veh OR4N2 (11742367_at) / RFU PRRT2 (11749266_a_at) / Fold change /veh PRRT2 (11749266_a_at) / RFU SNX32 (11753110_a_at) / Fold change /veh SNX32 (11753110_a_at) / RFU CDHR5 (11726645_a_at) / Fold change /veh CDHR5 (11726645_a_at) / RFU RCAN1 (11760418_a_at) / Fold change /veh RCAN1 (11760418_a_at) / RFU FAM167A (11723789_a_at) / Fold change /veh FAM167A (11723789_a_at) / RFU FAM26E (11764081_at) / Fold change /veh FAM26E (11764081_at) / RFU ISYNA1 (11749810_s_at) / Fold change /veh ISYNA1 (11749810_s_at) / RFU ACY1 (11761880_at) / Fold change /veh ACY1 (11761880_at) / RFU 11764098_at / Fold change /veh 11764098_at / RFU SAMD14 (11745864_x_at) / Fold change /veh SAMD14 (11745864_x_at) / RFU NPB (11741838_a_at) / Fold change /veh NPB (11741838_a_at) / RFU TMPRSS6 (11731388_a_at) / Fold change /veh TMPRSS6 (11731388_a_at) / RFU KRTAP10-2 (11738614_at) / Fold change /veh KRTAP10-2 (11738614_at) / RFU ARHGAP8 /// PRR5-ARHGAP8 (11727945_x_at) / Fold change /veh ARHGAP8 /// PRR5-ARHGAP8 (11727945_x_at) / RFU KRTAP5-7 /// NADSYN1 (11734609_at) / Fold change /veh KRTAP5-7 /// NADSYN1 (11734609_at) / RFU RASL12 (11751679_a_at) / Fold change /veh RASL12 (11751679_a_at) / RFU CDKN2B (11736163_a_at) / Fold change /veh CDKN2B (11736163_a_at) / RFU PRF1 (11729649_at) / Fold change /veh PRF1 (11729649_at) / RFU, ZNF638 /// ZNF638-IT1 / Fold change vs veh, ZNF638 /// ZNF638-IT1 / RFU, PANK3 / Fold change vs veh, PANK3 / RFU, SH3YL1 / Fold change vs veh, SH3YL1 / RFU, ZEB2 / Fold change vs veh, ZEB2 / RFU, NRIP1 / Fold change vs veh, NRIP1 / RFU, PTTG1IP / Fold change vs veh, PTTG1IP / RFU, CAPN2 / Fold change vs veh, CAPN2 / RFU, MED14 / Fold change vs veh, MED14 / RFU, SNORA58 / Fold change vs veh, SNORA58 / RFU, C1orf63 / Fold change vs veh, C1orf63 / RFU, LRRFIP1 / Fold change vs veh, LRRFIP1 / RFU, NDUFAF7 / Fold change vs veh, NDUFAF7 / RFU, SLC12A2 / Fold change vs veh, SLC12A2 / RFU, IBTK / Fold change vs veh, IBTK / RFU, ESF1 / Fold change vs veh, ESF1 / Fold change vs veh, TMEM50B / RFU, TAOK1 / Fold change vs veh, TAOK1 / RFU, ACBD3 / Fold change vs veh, ACBD3 / RFU, TMA16 / Fold change vs veh, TMA16 / RFU, RWDD3 / Fold change vs veh, RWDD3 / RFU, BCAT1 / Fold change vs veh, BCAT1 / RFU, EDEM3 / Fold change vs veh, EDEM3 / RFU, TMEM33 / Fold change vs veh, TMEM33 / RFU, WDR75 / Fold change vs veh, WDR75 / RFU, AHCTF1 / Fold change vs veh, AHCTF1 / RFU, TFRC / Fold change vs veh, TFRC / RFU, ZDHHC17 / Fold change vs veh, ZDHHC17 / RFU, NOM1 / Fold change vs veh, NOM1 / RFU, ARL8B / Fold change vs veh, ARL8B / RFU, ZBTB11 / Fold change vs veh, ZBTB11 / RFU, TAMM41 / Fold change vs veh, TAMM41 / RFU, KIAA1704 /// LOC100996395 / Fold change vs veh, KIAA1704 /// LOC100996395 / RFU, ING1 / Fold change vs veh, ING1 / RFU, TRMT61B / Fold change vs veh, TRMT61B / RFU, FUBP3 / Fold change vs veh, FUBP3 / RFU, TP53 / Fold change vs veh, TP53 / RFU, TNKS2 / Fold change vs veh, TNKS2 / RFU, ZFP14 / Fold change vs veh, ZFP14 / RFU, ACTR2 / Fold change vs veh, ACTR2 / RFU, PPP3R1 / Fold change vs veh, PPP3R1 / RFU, PIK3R1 / Fold change vs veh, PIK3R1 / RFU, HNRNPA1 / Fold change vs veh, HNRNPA1 / RFU, RNF170 / Fold change vs veh, RNF170 / RFU, ZNF28 / Fold change vs veh, ZNF28 / RFU, RNGTT / Fold change vs veh, RNGTT / RFU, OGT / Fold change vs veh, OGT / RFU, BRD1 / Fold change vs veh, BRD1 / RFU, MARS / Fold change vs veh, MARS / RFU, ZNF655 / Fold change vs veh, ZNF655 / RFU, FAHD1 / Fold change vs veh, FAHD1 / RFU, BDP1 / Fold change vs veh, BDP1 / RFU, LRRCC1 / Fold change vs veh, LRRCC1 / RFU, ARID1A / Fold change vs veh, ARID1A / RFU, ZNF146 / Fold change vs veh, ZNF146 / RFU, ZNF330 / Fold change vs veh, ZNF330 / RFU, GPN3 / Fold change vs veh, GPN3 / RFU, C9orf123 / Fold change vs veh, C9orf123 / RFU, N4BP2L2 / Fold change vs veh, N4BP2L2 / RFU, ARFIP1 / Fold change vs veh, ARFIP1 / RFU, FAM179B / Fold change vs veh, FAM179B / RFU, BCL10 / Fold change vs veh, BCL10 / RFU, UHRF1BP1L / Fold change vs veh, UHRF1BP1L / RFU, BET1 / Fold change vs veh, BET1 / RFU, CNOT2 / Fold change vs veh, CNOT2 / RFU, ZNF268 / Fold change vs veh, ZNF268 / Fold change vs veh, ZNF507 / RFU, DGCR2 / Fold change vs veh, DGCR2 / RFU, WDSUB1 / Fold change vs veh, WDSUB1 / Fold change vs veh, HSP90B1 /// MIR3652 / RFU, ADSS / Fold change vs veh, ADSS / RFU, GK / Fold change vs veh, GK / RFU, ZNF148 / Fold change vs veh, ZNF148 / RFU, TAF9 / Fold change vs veh, TAF9 / RFU, SLC1A5 / Fold change vs veh, SLC1A5 / RFU, SLMO2 / Fold change vs veh, SLMO2 / RFU, ABCC4 / Fold change vs veh, ABCC4 / RFU, LOC101060439 /// RAP1B / Fold change vs veh, LOC101060439 /// RAP1B / RFU, RFX7 / Fold change vs veh, RFX7 / RFU, GTPBP10 / Fold change vs veh, GTPBP10 / RFU, CNEP1R1 / Fold change vs veh, CNEP1R1 / RFU, BIVM-ERCC5 /// ERCC5 / Fold change vs veh, BIVM-ERCC5 /// ERCC5 / RFU, ILF3 / Fold change vs veh, ILF3 / RFU 11762660_at / Fold change /veh 11762660_at / RFU VCAN (11757783_s_at) / Fold change /veh VCAN (11757783_s_at) / RFU DDX43 (11728927_at) / Fold change /veh DDX43 (11728927_at) / RFU KRT8 (11758188_x_at) / Fold change /veh KRT8 (11758188_x_at) / RFU NKD1 (11759106_at) / Fold change /veh NKD1 (11759106_at) / RFU SRD5A1 (11742802_a_at) / Fold change /veh SRD5A1 (11742802_a_at) / RFU TPSAB1 /// TPSB2 (11721975_s_at) / Fold change /veh TPSAB1 /// TPSB2 (11721975_s_at) / RFU GSTM3 (11746129_a_at) / Fold change /veh GSTM3 (11746129_a_at) / RFU IL23R (11737362_x_at) / Fold change /veh IL23R (11737362_x_at) / RFU TMEM51 (11727254_a_at) / Fold change /veh TMEM51 (11727254_a_at) / RFU PIWIL2 (11732686_x_at) / Fold change /veh PIWIL2 (11732686_x_at) / RFU ORM1 (11744905_x_at) / Fold change /veh ORM1 (11744905_x_at) / RFU CCDC152 (11743942_at) / Fold change /veh CCDC152 (11743942_at) / RFU ECM1 (11717891_a_at) / Fold change /veh ECM1 (11717891_a_at) / RFU IL23R (11748794_a_at) / Fold change /veh IL23R (11748794_a_at) / RFU TNFAIP8L3 (11732012_x_at) / Fold change /veh TNFAIP8L3 (11732012_x_at) / RFU MBOAT4 (11741988_at) / Fold change /veh MBOAT4 (11741988_at) / RFU 11764193_at / Fold change /veh 11764193_at / RFU TMEM53 (11763286_at) / Fold change /veh TMEM53 (11763286_at) / RFU MAGEB2 (11727129_at) / Fold change /veh MAGEB2 (11727129_at) / RFU TMEM200A (11744735_a_at) / Fold change /veh TMEM200A (11744735_a_at) / RFU CCDC152 (11751479_a_at) / Fold change /veh CCDC152 (11751479_a_at) / RFU FAM211A (11726209_a_at) / Fold change /veh FAM211A (11726209_a_at) / RFU RGS16 (11746705_a_at) / Fold change /veh RGS16 (11746705_a_at) / RFU VCAN (11755009_s_at) / Fold change /veh VCAN (11755009_s_at) / RFU RHOB (11743442_s_at) / Fold change /veh RHOB (11743442_s_at) / RFU RGS16 (11720943_a_at) / Fold change /veh RGS16 (11720943_a_at) / RFU RGS16 (11720944_at) / Fold change /veh RGS16 (11720944_at) / RFU, VPS4B / Fold change vs veh, VPS4B / RFU, CREB1 / Fold change vs veh, CREB1 / RFU, DNAJC13 / Fold change vs veh, DNAJC13 / RFU, GNAQ / Fold change vs veh, GNAQ / RFU, CDK5R1 / Fold change vs veh, CDK5R1 / RFU, ZRANB3 / Fold change vs veh, ZRANB3 / RFU, CUL4A / Fold change vs veh, CUL4A / RFU, CCNY / Fold change vs veh, CCNY / RFU, UFL1 / Fold change vs veh, UFL1 / RFU, COG3 / Fold change vs veh, COG3 / RFU, DIAPH2 / Fold change vs veh, DIAPH2 / RFU, SKA2 / Fold change vs veh, SKA2 / RFU, AFF3 / Fold change vs veh, AFF3 / RFU, LMF1 / Fold change vs veh, LMF1 / RFU, IPO11 / Fold change vs veh, IPO11 / RFU, DFFB / Fold change vs veh, DFFB / RFU, FOXP1 / Fold change vs veh, FOXP1 / RFU, CARD8 / Fold change vs veh, CARD8 / RFU, STRN3 / Fold change vs veh, STRN3 / RFU, ADK / Fold change vs veh, ADK / RFU, RASSF2 / Fold change vs veh, RASSF2 / RFU, WIPF1 / Fold change vs veh, WIPF1 / RFU, LARP1B / Fold change vs veh, LARP1B / RFU, RASA1 / Fold change vs veh, RASA1 / RFU, RB1 / Fold change vs veh, RB1 / RFU, PPFIA1 / Fold change vs veh, PPFIA1 / RFU, MAT2A / Fold change vs veh, MAT2A / RFU, CCT5 / Fold change vs veh, CCT5 / RFU, WDR92 / Fold change vs veh, WDR92 / RFU, CUX1 / Fold change vs veh, CUX1 / RFU, TTC7A / Fold change vs veh, TTC7A / RFU, TMEM135 / Fold change vs veh, TMEM135 / RFU, DEPTOR / Fold change vs veh, DEPTOR / RFU, CPM / Fold change vs veh, CPM / RFU, DNAJB6 / Fold change vs veh, DNAJB6 / RFU, CACNA2D3 / Fold change vs veh, CACNA2D3 / RFU, DTX4 / Fold change vs veh, DTX4 / RFU, TFCP2 / Fold change vs veh, TFCP2 / RFU, GMCL1 /// GMCL1P1 / Fold change vs veh, GMCL1 /// GMCL1P1 / RFU, AEBP2 / Fold change vs veh, AEBP2 / RFU, SNHG1 /// SNORD22 /// SNORD25 /// SNORD26 /// SNORD27 /// SNORD28 /// SNORD29 /// SNORD31 / Fold change vs veh, SNHG1 /// SNORD22 /// SNORD25 /// SNORD26 /// SNORD27 /// SNORD28 /// SNORD29 /// SNORD31 / Fold change (Aza/veh), C12orf56 (ProbeSet 11735607_a_at) / Fold change (ACY-1035/veh), C12orf56 (ProbeSet 11735607_a_at) / Fold change (Aza/veh), FGFR1OP (ProbeSet 11751329_s_at) / Fold change (ACY-1035/veh), FGFR1OP (ProbeSet 11751329_s_at) / Fold change (Aza/veh), VPS36 (ProbeSet 11739960_a_at) / Fold change (ACY-1035/veh), VPS36 (ProbeSet 11739960_a_at) / RFU SYPL1 (11715823_x_at) / Fold change /veh SYPL1 (11715823_x_at) / RFU IGFBP7 (11715501_s_at) / Fold change /veh IGFBP7 (11715501_s_at) / RFU REEP3 (11722064_at) / Fold change /veh REEP3 (11722064_at) / RFU IGLL1 (11728026_x_at) / Fold change /veh IGLL1 (11728026_x_at): dose or concentration left out as unconfirmed
Details: ProbeSet 11745428_a_at; LIST D

SMILES: Nc1ncn([C@@H]2O[C@H](CO)[C@@H](O)[C@H]2O)c(=O)n1 [azacitidine]
- Fold change vs veh, DFFB: 0.78
